In PubChem BioAssay (NCI):
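Grown in 96-well plates, cells were treated for 48 hours with each compound at five concentrations. Insufficient inhibition: endpoint recorded as highest concentration tested. GI50 is the concentration that inhibits growth by half. Definition used: TGI = concentration required for complete inhibition of growth.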

How the values were obtained:
Assay in all cases: NCI anticancer screen, dose series, 48 h
[1] = tested on: SF-539 CNS
[2] = tested on: RXF 393 renal
[3] = tested on: PC-3 prostate
[4] = tested on: UACC-62 melanoma
[5] = tested on: HCC-2998 colon
[6] = tested on: SK-OV-3 ovarian
[7] = tested on: BT-549 breast
[8] = tested on: SF-268 CNS
[9] = tested on: TK-10 renal
[10] = tested on: SNB-75 CNS
[11] = tested on: OVCAR-5 ovarian
[12] = tested on: SK-MEL-5 melanoma
[13] = tested on: MDA-MB-435
[14] = tested on: SF-295 CNS
[15] = tested on: CAKI-1 renal
[16] = tested on: MALME-3M melanoma
[17] = tested on: RPMI-8226 leukemia
[18] = tested on: MOLT-4 leukemia
[19] = tested on: A549 NSCLC
[20] = tested on: HCT-116 colon
[21] = tested on: NCI-H23 lung
[22] = tested on: NCI-H460 lung
[23] = tested on: UO-31 renal
[24] = tested on: MCF7 breast
[25] = tested on: SNB-19 CNS
[26] = tested on: HL-60(TB) leukemia
[27] = tested on: NCI-H522 lung
[28] = tested on: U251 CNS
[29] = tested on: SK-MEL-28 melanoma
[30] = tested on: MDA-MB-231 breast
[31] = tested on: 786-0 renal
[32] = tested on: COLO 205 colon
[33] = tested on: HT29 colon
[34] = tested on: SW-620 colon
[35] = tested on: K-562 leukemia
[36] = tested on: SN12C renal
[37] = tested on: DU-145 prostate
[38] = tested on: OVCAR-8 ovarian
[39] = tested on: M14 melanoma
[40] = tested on: HOP-62 NSCLC
[41] = tested on: HS 578T breast
[42] = tested on: SR leukemia
[43] = tested on: HOP-92 NSCLC
[44] = tested on: IGROV1 ovarian
[45] = tested on: SK-MEL-2 melanoma
[46] = tested on: EKVX NSCLC
[47] = tested on: A498 renal
[48] = tested on: OVCAR-3 ovarian
[49] = tested on: OVCAR-4 ovarian
[50] = tested on: HCT-15 colon
[51] = tested on: CCRF-CEM leukemia
[52] = tested on: KM12 colon
[53] = tested on: ACHN renal
[54] = tested on: UACC-257 melanoma
[55] = tested on: NCI/ADR-RES ovarian
[56] = tested on: T-47D breast
[57] = tested on: LOX IMVI melanoma
[58] = tested on: NCI-H226 lung

SMILES: NS(=O)(=O)OC[C@H]1C[C@@H](Nc2ccnc3cc(-c4cccc(SC(F)(F)F)c4)nn23)[C@H](O)[C@@H]1O
- GI50 [1]: 14.3 nM
- TGI [1]: 37 nM
- GI50 [2]: 19.9 nM
- TGI [2]: 43.6 nM
- GI50 [3]: 37.8 nM
- TGI [3]: 367 nM
- GI50 [4]: 32.5 nM
- TGI [4]: 195 nM
- GI50 [5]: 22 nM
- TGI [5]: 44.2 nM
- GI50 [6]: 27.1 nM
- TGI [6]: 76.9 nM
- GI50 [7]: 19.3 nM
- TGI [7]: 48.4 nM
- GI50 [8]: 26.5 nM
- TGI [8]: 71.1 nM
- GI50 [9]: 126 nM
- TGI [9]: 336 nM
- GI50 [10]: 39.7 nM
- TGI [10]: 187 nM
- GI50 [11]: 57.8 nM
- TGI [11]: 2830 nM
- GI50 [12]: 13.3 nM
- TGI [12]: 27.8 nM
- GI50 [13]: 35 nM
- TGI [13]: 144 nM
- GI50 [14]: 86 nM
- TGI [14]: 237 nM
- GI50 [15]: 181 nM
- TGI [15]: 477 nM
- GI50 [16]: 27.5 nM
- TGI [16]: 65.2 nM
- GI50 [17]: 641 nM
- TGI [17]: 3000 nM
- GI50 [18]: 166 nM
- TGI [18]: 588 nM
- GI50 [19]: 206 nM
- TGI [19]: 445 nM
- GI50 [20]: 15.9 nM
- TGI [20]: 57.1 nM
- GI50 [21]: 33.8 nM
- TGI [21]: 130 nM
- GI50 [22]: 259 nM
- TGI [22]: 679 nM
- GI50 [23]: 208 nM
- TGI [23]: 369 nM
- GI50 [24]: 21.4 nM
- TGI [24]: 173 nM
- GI50 [25]: 30.1 nM
- TGI [25]: 90.2 nM
- GI50 [26]: 33.2 nM
- TGI [26]: 150 nM
- GI50 [27]: 18.4 nM
- TGI [27]: 36.3 nM
- GI50 [28]: 16 nM
- TGI [28]: 33.9 nM
- GI50 [29]: 18.9 nM
- TGI [29]: 65 nM
- GI50 [30]: 19.5 nM
- TGI [30]: 86.7 nM
- GI50 [31]: 47.2 nM
- TGI [31]: 190 nM
- GI50 [32]: 22.9 nM
- TGI [32]: 52.5 nM
- GI50 [33]: 249 nM
- TGI [33]: 552 nM
- GI50 [34]: 42.2 nM
- TGI [34]: 1370 nM
- GI50 [35]: < 14 nM
- TGI [35]: 1230 nM
- GI50 [36]: 46.2 nM
- TGI [36]: 319 nM
- GI50 [37]: 29 nM
- TGI [37]: 190 nM
- GI50 [38]: 21.6 nM
- TGI [38]: 68.2 nM
- GI50 [39]: 42.9 nM
- TGI [39]: 278 nM
- GI50 [40]: 17.3 nM
- TGI [40]: 48.9 nM
- GI50 [41]: 35.1 nM
- TGI [41]: 1950 nM
- GI50 [42]: 31.6 nM
- TGI [42]: 1050 nM
- GI50 [43]: 30.8 nM
- TGI [43]: 78.8 nM
- GI50 [44]: 111 nM
- TGI [44]: 673 nM
- GI50 [45]: 31.6 nM
- TGI [45]: 118 nM
- GI50 [46]: 28 nM
- TGI [46]: 104 nM
- GI50 [47]: 13 nM
- TGI [47]: 26.2 nM
- GI50 [48]: < 16.6 nM
- TGI [48]: 34 nM
- GI50 [49]: 27.4 nM
- TGI [49]: 110 nM
- GI50 [50]: 139 nM
- TGI [50]: 449 nM
- GI50 [51]: < 18.1 nM
- TGI [51]: 13200 nM
- GI50 [52]: 99.1 nM
- TGI [52]: 368 nM
- GI50 [53]: 176 nM
- TGI [53]: 360 nM
- GI50 [54]: 27.8 nM
- TGI [54]: 108 nM

SMILES: CCOCCOCCOCc1nc(C#N)c(N)o1
- TGI [1]: > 100000 nM
- TGI [2]: > 100000 nM
- TGI [3]: > 100000 nM
- TGI [4]: > 100000 nM
- TGI [5]: > 100000 nM
- TGI [6]: > 100000 nM
- TGI [55]: > 100000 nM
- TGI [7]: > 100000 nM
- TGI [8]: > 100000 nM
- TGI [9]: > 100000 nM
- TGI [10]: > 100000 nM
- TGI [11]: > 100000 nM
- TGI [12]: > 100000 nM
- TGI [13]: > 100000 nM
- TGI [56]: > 100000 nM
- TGI [14]: > 100000 nM
- TGI [15]: > 100000 nM
- TGI [17]: > 100000 nM
- TGI [18]: > 100000 nM
- TGI [19]: > 100000 nM
- TGI [20]: > 100000 nM
- TGI [21]: > 100000 nM
- TGI [22]: > 100000 nM
- TGI [23]: > 100000 nM
- TGI [57]: > 100000 nM
- TGI [24]: > 100000 nM
- TGI [26]: > 100000 nM
- TGI [27]: > 100000 nM
- TGI [28]: > 100000 nM
- TGI [29]: > 100000 nM
- TGI [30]: > 100000 nM
- TGI [31]: > 100000 nM
- TGI [32]: > 100000 nM
- TGI [33]: > 100000 nM
- TGI [34]: > 100000 nM
- TGI [35]: > 100000 nM
- TGI [36]: > 100000 nM
- TGI [37]: > 100000 nM
- TGI [38]: > 100000 nM
- TGI [39]: > 100000 nM
- TGI [40]: > 100000 nM
- TGI [42]: > 100000 nM
- TGI [44]: > 100000 nM
- TGI [45]: > 100000 nM
- TGI [46]: > 100000 nM
- TGI [47]: > 100000 nM
- TGI [48]: > 100000 nM
- TGI [49]: > 100000 nM
- TGI [50]: > 100000 nM
- TGI [51]: > 100000 nM
- TGI [52]: > 100000 nM
- TGI [58]: > 100000 nM
- TGI [53]: > 100000 nM
- TGI [54]: > 100000 nM
